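Cells were grown in 96-well plates and exposed to each compound for 48 hours at five concentrations; endpoints were interpolated linearly between bracketing concentrations, or set to the highest concentration if not reached. The concentration for 50% growth inhibition is given as GI50. At the TGI there is no net growth.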
Experiments:
Test in all cases: NCI-60 cell line screen, 48 h
[1] = tested on: MOLT-4 leukemia
[2] = tested on: NCI-H226 lung
[3] = tested on: SK-MEL-28 melanoma

COc1ccc2c(O)c3[n+](cc2c1OC)CCc1cc2c(cc1-3)OCO2
TGI [1]: > 100000 nM | TGI [2]: > 100 µM

ClCCN(CCCl)Cc1ccc(Nc2ccnc3cc(Cl)ccc23)cc1
GI50 [1]: 416 nM | TGI [1]: 2780 nM | GI50 [2]: 1410 nM | TGI [2]: 3.78 µM | GI50 [3]: 2150 nM | TGI [3]: 5.31 µM

COc1ccc(C(=O)C2CC3(CCC2(O)c2ccc(OC)cc2)CC(=O)Nc2ccccc2C3=O)cc1 (stereo not drawn)
TGI [2]: > 100 µM

COC[C@H]1C(=O)NCC(=O)N2NCCC[C@H]2C(=O)N(O)[C@H](C)C(=O)O[C@@H](C(C)C)[C@H](NC(=O)[C@](C)(O)[C@]2(O)CC[C@@H](CC(C)C)[C@H](C)O2)C(=O)N2NCCC[C@@H]2C(=O)N1O
GI50 [1]: < 10 nM | TGI [1]: 46.4 nM | GI50 [3]: < 10 nM | TGI [3]: 0.0221 µM

CO/C(=N\N=C(/C)C(F)(F)F)c1ccncc1
TGI [1]: > 100000 nM | TGI [2]: > 100 µM | TGI [3]: > 100 µM

CCOc1ncn(-c2ccc(NC(=S)Nc3cccc(O)c3)cc2)n1
TGI [1]: > 100000 nM | TGI [3]: > 100 µM
